Series [1] deals with Rattus norvegicus. As to the kind of experiment: Induction of PTH release in iv dosed Wistar rat by radioimmunoassay. The series is classed as functional, organism-based.
For series [2], the target named is T1, Extracellular calcium-sensing receptor (Homo sapiens, UniProt P41180).
T1 sequence (P41180 whole entry): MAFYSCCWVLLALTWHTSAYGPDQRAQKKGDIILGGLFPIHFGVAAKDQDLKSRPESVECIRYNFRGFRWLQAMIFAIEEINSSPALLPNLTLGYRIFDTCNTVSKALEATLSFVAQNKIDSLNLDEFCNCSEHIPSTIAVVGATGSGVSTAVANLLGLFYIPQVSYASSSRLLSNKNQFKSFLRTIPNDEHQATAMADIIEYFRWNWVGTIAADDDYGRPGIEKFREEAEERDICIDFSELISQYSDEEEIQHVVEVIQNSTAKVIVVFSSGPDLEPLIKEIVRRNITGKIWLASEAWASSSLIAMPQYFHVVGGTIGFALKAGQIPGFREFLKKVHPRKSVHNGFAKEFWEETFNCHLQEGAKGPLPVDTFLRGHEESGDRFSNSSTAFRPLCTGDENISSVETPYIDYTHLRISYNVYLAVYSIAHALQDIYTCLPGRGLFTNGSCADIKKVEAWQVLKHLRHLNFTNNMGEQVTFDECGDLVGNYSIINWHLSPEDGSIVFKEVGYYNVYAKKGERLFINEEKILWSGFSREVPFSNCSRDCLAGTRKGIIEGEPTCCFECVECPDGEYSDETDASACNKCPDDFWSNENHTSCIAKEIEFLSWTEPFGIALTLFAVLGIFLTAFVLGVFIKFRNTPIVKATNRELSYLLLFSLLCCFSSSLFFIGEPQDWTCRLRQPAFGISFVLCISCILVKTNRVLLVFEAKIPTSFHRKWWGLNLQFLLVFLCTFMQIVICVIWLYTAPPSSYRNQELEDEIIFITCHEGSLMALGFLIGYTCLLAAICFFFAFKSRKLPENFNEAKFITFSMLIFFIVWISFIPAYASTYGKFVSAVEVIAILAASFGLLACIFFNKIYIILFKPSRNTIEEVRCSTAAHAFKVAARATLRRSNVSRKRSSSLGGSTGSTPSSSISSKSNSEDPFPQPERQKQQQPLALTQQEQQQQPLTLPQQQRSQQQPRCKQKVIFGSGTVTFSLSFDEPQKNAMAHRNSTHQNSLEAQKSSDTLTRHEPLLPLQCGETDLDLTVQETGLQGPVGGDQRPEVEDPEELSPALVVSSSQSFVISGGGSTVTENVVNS
As to the kind of experiment: Antagonist activity at human CaSR expressed in CCL39 cells assessed as inhibition of extracellular calcium-induced intracellular calcium transient by FLIPR assay. The series is classed as functional, cell-based. A general note: A change in cytosolic calcium serves as a functional read-out for many receptors and channels.

Series [3] in a line: Aqueous solubility at pH 1.0. The series is classed as physicochemical.
The nature of series [4]: Aqueous solubility at pH 6.8. The series is classed as physicochemical.
Series [5] in a line: Oral bioavailability in rat. The series is classed as ADME, organism-based. As to conditions: in vivo.

The source of these data is ChEMBL document CHEMBL1157601, “1-Alkyl-4-phenyl-6-alkoxy-1H-quinazolin-2-ones: a novel series of potent calcium-sensing receptor antagonists” (J Med Chem, 2010).

In brackets after ≈: the same amount, converted by molar mass. Activity calls are given as the source filed them. No cut-off for these calls is given here. Where only a bound is given, the exact number is not on record here.

For `C#CCOc1ccc2c(c1)c(-c1ccc(C(C)C)cc1)nc(=O)n2Cc1cccc(OCC(=O)O)c1`, the result in series [1] was Active. For the same compound, in series [2], the IC50 (in general, the concentration at which inhibition is half-maximal) came to 3.4 nM.
On to `C#CCOc1ccc2c(c1)c(-c1ccc(C(C)C)cc1)nc(=O)n2Cc1ccc(OCC)cc1`, for which the result in series [1] was Active. Besides, the IC50 in series [2] stood at 19 nM.
On to `CCCOc1ccc2c(c1)c(-c1ccc(C(C)C)cc1)nc(=O)n2C(C)C`, for which, in series [1], the result was Active. The IC50 in series [2] was 1100 nM.
For `C#CCOc1ccc2c(c1)c(-c1ccc(C(C)C)cc1)nc(=O)n2Cc1cccc(NC(=O)CN2CCN(CCCN(C)C)CC2)c1`, the solubility (as a rule, the concentration that dissolves in the medium under given conditions) in series [3] was > 200 µg/mL; in series [4] it was 100 µg/mL (≈ 158 µM). Moreover, the result in series [1] was Active. The IC50 in series [2] stood at 8.1 nM. Also, the bioavailability (in general, dose-corrected exposure relative to a reference, in per cent) in series [5] worked out at 8%.
Turning to `C#CCOc1ccc2c(c1)c(-c1ccc(C(C)C)cc1)nc(=O)n2Cc1ccc(C(C)C)cc1`, the outcome in series [1] was Active. The IC50 in series [2] amounted to 27 nM.
With `C=CCOc1ccc2c(c1)c(-c1ccc(C(C)C)cc1)nc(=O)n2C(C)C`, the outcome in series [1] was Active. Further, the IC50 in series [2] is 180 nM.
For `C=CCc1c(O)ccc2c1c(-c1ccc(C(C)C)cc1)nc(=O)n2Cc1ccccc1`, in that order: “Active” and 3.9 nM.
The matching figures for `CCNc1ccc2c(c1)c(-c1ccc(C(C)C)cc1)nc(=O)n2C(C)C`: “Active” and 460 nM.
As to `COc1ccc2c(c1)c(-c1ccc(C(=O)O)cc1)nc(=O)n2C(C)C`, the outcome in series [1] was Active. For the same compound, the half-inhibitory concentration (IC50) in series [2] was > 30000 nM.
The matching figures for `CCCCOc1ccc2c(c1)c(-c1ccc(C(C)C)cc1)nc(=O)n2C(C)C`: “Active” and 3700 nM.
Regarding `C#CCOc1ccc2c(c1)c(-c1ccc(C(C)C)cc1)nc(=O)n2Cc1cccc(C)c1`, in series [1], the result was Active. Besides, the half-maximal inhibitory concentration (IC50) in series [2] worked out at 1.8 nM.
As to `C#CCOc1ccc2c(c1)c(-c1ccc(C(C)C)cc1)nc(=O)n2Cc1cccc(NC(=O)CN2CCN(CCOC)CC2)c1`, the solubility is > 200 µg/mL in series [3] and 20 µg/mL (≈ 32.9 µM) in series [4]. Further, the outcome in series [1] was Active. For the same compound, in series [2], the IC50 amounted to 13 nM. In series [5], this compound gave a bioavailability of 1%.
The matching figures for `C#CCOc1ccc2c(c1)c(-c1ccc(C(C)C)cc1)nc(=O)n2Cc1cccc(NC(=O)CN2CCN(C)CC2)c1`: > 200 µg/mL, 20 µg/mL (≈ 35.5 µM), “Active”, 2.4 nM and 1%.
With `COc1ccc2c(c1)c(-c1ccc(C)cc1)nc(=O)n2C(C)C`, the outcome in series [1] was Active. Further, the IC50 in series [2] is > 30000 nM.
For `C#CCOc1ccc2c(c1)c(-c1ccc(C(C)C)cc1)nc(=O)n2Cc1ccccc1`, in that order: “Active” and 4.4 nM.
`CC(C)c1ccc(-c2nc(=O)n(Cc3ccccc3)c3ccc(O)c(CC4CC4)c23)cc1`: the result in series [1] was Active. Besides, in series [2], the concentration for half-maximal inhibition (IC50) was found to be 2.5 nM.
As to `C#CCOc1ccc2c(c1)c(-c1ccc(C(C)C)cc1)nc(=O)n2Cc1ccc(CC)cc1`, the result in series [1] was Active. The IC50 in series [2] is 4.2 nM.
In the case of `COc1ccc2c(c1)c(-c1ccc(C3CC3)cc1)nc(=O)n2C(C)C`, the outcome in series [1] was Active. The IC50 in series [2] was 3300 nM.
With `CCOc1ccc2c(c1)c(-c1ccc(C(C)C)cc1)nc(=O)n2C(C)C`, the outcome in series [1] was Active. Further, the IC50 in series [2] came out at 2200 nM.
On to `C#CCOc1ccc2c(c1)c(-c1ccc(C(C)C)cc1)nc(=O)n2Cc1ccc(OC)c(OCC)c1` [ATF-936], for which the result in series [1] was Active. Moreover, the IC50 in series [2] came out at 1.4 nM.
The matching figures for `CCCNc1ccc2c(c1)c(-c1ccc(C(C)C)cc1)nc(=O)n2C(C)C`: “Active” and 1100 nM.
For `C#CCOc1ccc2c(c1)c(-c1ccc(C(C)C)cc1)nc(=O)n2Cc1cccc(OC)c1`, the result in series [1] was Active. In addition, in series [2], the IC50 came out at 2.7 nM.
`CC(C)Oc1ccc2c(c1)c(-c1ccc(C(C)C)cc1)nc(=O)n2C(C)C`: the result in series [1] was Active. Further, the concentration for half-maximal inhibition (IC50) in series [2] stood at 2700 nM.
Regarding `CC#CCOc1ccc2c(c1)c(-c1ccc(C(C)C)cc1)nc(=O)n2C(C)C`, the result in series [1] was Active. Further, in series [2], the IC50 was 170 nM.
Consider `CCCN(CCC)c1ccc2c(c1)c(-c1ccc(C(C)C)cc1)nc(=O)n2C(C)C`, for which the result in series [1] was Active. In addition, the half-maximal inhibitory concentration (IC50) in series [2] is 2900 nM.
Consider `C#CCOc1ccc2c(c1)c(-c1ccc(C(C)C)cc1)nc(=O)n2Cc1ccc(OCC(=O)O)cc1`, for which the outcome in series [1] was Active. In addition, the half-inhibitory concentration (IC50) in series [2] turned out to be 12.6 nM.
As for `COc1ccc2c(c1)c(-c1ccc(-c3ccccc3)cc1)nc(=O)n2C(C)C`, the outcome in series [1] was Active. Besides, the IC50 in series [2] was 5500 nM.
`CCCc1c(O)ccc2c1c(-c1ccc(C(C)C)cc1)nc(=O)n2Cc1ccccc1`: the result in series [1] was Active. For the same compound, the IC50 in series [2] is 6.6 nM.
In the case of `COc1ccc2c(c1)c(-c1ccccc1)nc(=O)n2C(C)C`, the outcome in series [1] was Active. Also, the half-inhibitory concentration (IC50) in series [2] was > 30000 nM.
For `C#CCNc1ccc2c(c1)c(-c1ccc(C(C)C)cc1)nc(=O)n2C(C)C`, in that order: “Active” and 30 nM.
For `COc1ccc2c(c1)c(-c1ccc(C(C)C)cc1)nc(=O)n2C(C)C`, the outcome in series [1] was Active. The half-inhibitory concentration (IC50) in series [2] came out at 1400 nM.
As to `COc1ccc2c(c1)c(-c1ccc(C(C)(C)C)cc1)nc(=O)n2C(C)C`, in series [1], the outcome was Active. Further, in series [2], the IC50 was found to be 2100 nM.
`C#CCOc1ccc2c(c1)c(-c1ccc(C(C)C)cc1)nc(=O)n2Cc1cccc(CC)c1`: in series [1], the outcome was Active. For the same compound, the concentration for half-maximal inhibition (IC50) in series [2] came to 13 nM.
In the case of `CCN(CC)c1ccc2c(c1)c(-c1ccc(C(C)C)cc1)nc(=O)n2C(C)C`, the outcome in series [1] was Active. Moreover, the 50% inhibitory concentration (IC50) in series [2] was found to be 520 nM.
Consider `C#CCOc1ccc2c(c1)c(-c1ccc(C(C)C)cc1)nc(=O)n2Cc1ccc(C)cc1`, for which the result in series [1] was Active. The IC50 in series [2] was found to be 1.6 nM.
Take `C#CCOc1ccc2c(c1)c(-c1ccc(C(C)C)cc1)nc(=O)n2Cc1ccc(OC)cc1`: the outcome in series [1] was Active. Besides, the IC50 in series [2] amounted to 4.2 nM.
The matching figures for `C#CCN(CC#C)c1ccc2c(c1)c(-c1ccc(C(C)C)cc1)nc(=O)n2C(C)C`: “Active” and 120 nM.
For the compound `CC(C)c1ccc(-c2nc(=O)n(C(C)C)c3ccc(O)cc23)cc1`, in series [1], the result was Active. Besides, the half-maximal inhibitory concentration (IC50) in series [2] was 15900 nM.
Take `CCc1ccc(-c2nc(=O)n(C(C)C)c3ccc(OC)cc23)cc1`: in series [1], the result was Active. In addition, the IC50 in series [2] turned out to be 2100 nM.
With `C#CCOc1ccc2c(c1)c(-c1ccc(C(C)C)cc1)nc(=O)n2Cc1cccc(OCCO)c1`, in series [1], the outcome was Active. The IC50 in series [2] was 7.3 nM.
Turning to `CC(C)c1ccc(-c2nc(=O)n(C(C)C)c3ccc(NCc4ccccc4)cc23)cc1`, the outcome in series [1] was Active. Besides, the IC50 in series [2] came to 10000 nM.
`C#CCOc1ccc2c(c1)c(-c1ccc(C(C)C)cc1)nc(=S)n2Cc1cccc(OCCO)c1`: the outcome in series [1] was Active. For the same compound, the concentration for half-maximal inhibition (IC50) in series [2] is 0.4 nM.
For `COc1ccc2c(c1)c(-c1ccc(OC(C)C)cc1)nc(=O)n2C(C)C`, the outcome in series [1] was Active. For the same compound, the 50% inhibitory concentration (IC50) in series [2] is > 30000 nM.
The matching figures for `C=CCN(C)c1ccc2c(c1)c(-c1ccc(C(C)C)cc1)nc(=O)n2C(C)C`: “Active” and 230 nM.
For `COC(=O)c1ccc(-c2nc(=O)n(C(C)C)c3ccc(OC)cc23)cc1`, in that order: “Active” and > 30000 nM.
For the compound `C=CCNc1ccc2c(c1)c(-c1ccc(C(C)C)cc1)nc(=O)n2C(C)C`, the result in series [1] was Active. In addition, the half-maximal inhibitory concentration (IC50) in series [2] turned out to be 70 nM.
